Literature values in patent US20040147461A1, “Motilide compounds” (priority 2000, published 2004).

Assays:
[1] = target: motilin receptor (Homo sapiens, UniProt O43193); details: statement in words
[2] = statement in words

motilin receptor, sequence (O43193 whole entry, species assumed): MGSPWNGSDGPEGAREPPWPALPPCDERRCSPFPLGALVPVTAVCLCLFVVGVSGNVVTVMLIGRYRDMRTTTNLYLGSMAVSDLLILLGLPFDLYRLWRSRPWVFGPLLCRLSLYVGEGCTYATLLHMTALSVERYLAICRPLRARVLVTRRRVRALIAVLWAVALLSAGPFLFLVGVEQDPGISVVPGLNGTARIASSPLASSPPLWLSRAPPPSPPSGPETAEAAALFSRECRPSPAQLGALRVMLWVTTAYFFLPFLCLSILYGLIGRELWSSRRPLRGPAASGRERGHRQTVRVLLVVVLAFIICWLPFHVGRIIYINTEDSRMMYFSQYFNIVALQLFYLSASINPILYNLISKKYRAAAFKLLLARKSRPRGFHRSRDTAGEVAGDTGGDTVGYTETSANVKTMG

SMILES | motilin agonist activity [1] | antimicrobial activity [2]
CC[C@H]1OC(=O)[C@H](C)[C@@H](O[C@H]2C[C@@](C)(OC)[C@@H](O)[C@H](C)O2)[C@H](C)[C@@H](O[C@@H]2O[C@H](C)C[C@H](N(C)C)[C@H]2O)[C@](C)(O)C[C@@H](C)C(=O)[C@H](C)[C@@H](O)[C@]1(C)O [erythromycin A] | motilin agonists | 
CC[C@H]1OC(=O)[C@H](C)[C@@H](O[C@H]2C[C@@](C)(OC)[C@@H](O)[C@H](C)O2)[C@H](C)[C@@H](O[C@@H]2O[C@H](C)C[C@H](N(C)C)[C@H]2O)[C@@]2(C)CC(C)=C(O2)[C@H](C)[C@@H](O)[C@]1(C)O [enol ether, 8,9-anhydroerythromycin A 6,9-hemiacetal] |  | does not also posses antimicrobial activity
